These results are taken from patent publication US20240299408A1, “METHODS OF TREATING 4-REPEAT TAUOPATHIES” (Woolsey Pharmaceuticals, Inc., priority 2020, published 2024).

Data set [1] deals with PSP patients. The following applies: cited from earlier work; for effect or benefit in clinical trial in PSP: PSP patients (riluzole: PSP and MSA).
For data set [2] the following is noted: in vivo, 1-hydroxy metabolite; cited from earlier work.
In data set [3] the test system is subjects with probable or possible PSP. In words: treatment of probable or possible PSP subjects with fasudil, assessments at six months and one year versus baseline and historical controls. In kind it is in vivo, human.

Structures can show the parent of a compound that is named as a salt.

Take `O=c1sn(-c2cccc3ccccc23)c(=O)n1Cc1ccccc1` [tideglusib]: the “effect or benefit in clinical trial in PSP” value (“effect or benefit” for short) in data set [1] is recorded as “failed to show benefit”.

As to `O=S(=O)(c1cccc2c(O)nccc12)N1CCCNCC1` [M3], in data set [2], the half-life result is “about 8 hours”.

Take `COC1=C(OC)C(=O)C(C/C=C(\C)CC/C=C(\C)CC/C=C(\C)CC/C=C(\C)CC/C=C(\C)CC/C=C(\C)CC/C=C(\C)CC/C=C(\C)CC/C=C(\C)CCC=C(C)C)=C(C)C1=O` [coenzyme Q10]: the “effect or benefit” value in data set [1] is given as “failed to provide benefit”.

With `CC[C@H](C)[C@H](NC(=O)[C@H](CO)NC(=O)[C@@H](NC(=O)[C@@H]1CCCN1C(=O)[C@H](C)NC(=O)[C@@H](N)CC(N)=O)C(C)C)C(=O)N1CCC[C@H]1C(=O)N[C@@H](CCC(N)=O)C(=O)O` [Davunetide], the “effect or benefit” value in data set [1] is listed as “not shown not to be effective”.

Take `[Li]` [lithium]: the “tolerability in open-label trial in PSP” value in data set [1] (open-label trial in PSP) is recorded as “terminated due to poor tolerability”.

`Nc1nc2ccc(OC(F)(F)F)cc2s1` [riluzole]: the “effect or benefit” value in data set [1] is on record as “failed to demonstrate effects”.

Regarding `C=CC1O[C@H]2C[C@H]3OC[C@@]3(OC(C)=O)[C@H]3[C@H](OC(=O)c4ccccc4)[C@]4(O)C[C@H](OC(=O)[C@H](O)[C@H](CC(C)C)NC(=O)OC(C)(C)C)C(C)=C([C@H](OC(C)=O)[C@H](O1)[C@]23C)C4(C)C` (stereo partly drawn) [TPI 287], the “effect or benefit” value in data set [1] is “failed to show any effect”.

For `O=S(=O)(c1cccc2cnccc12)N1CCCNCC1` [fasudil, Hexahydro-1-(5-isoquinolinesulfonyl)-1H-1,4-diazepine monohydrochloride hemihydrate], the “oculomotor and sleep parameters” value in data set [3] (fasudil 180 mg/day) is listed as “improve”. For the same molecule, the “PSP-RS increase over a year” value in data set [3] (fasudil 180 mg/day (60 mg tid), average is closer to 10) is not above 5 point.

`O=C(Oc1ccccc1C(=O)O)c1ccccc1O` [Salsalate]: in data set [1], the “effect or benefit” value is “failed”.

B1: Gosuranemab: humanized monoclonal antibody that targets N-terminal tau (antibody, chains of the INN, looked up, V domains shown)
VH: EVHLVESGGALVKPGGSLRLSCAASGFSFSKYGMSWVRQAPGKGLEWVATISSSGSRTYYPDSVKGRFTISRDNAKNTLYLQMNSLRAEDTAMYYCSISWDGAMDYWGQGTTVTVSS
VL: DVVMTQSPLSLPVTLGQPASISCKSSQSIVHSNGNTYLEWYLQKPGQSPQLLVYKVSNRFSGVPDRFSGSGSGTDFTLKISRVEAEDVGTYYCFQGSLVPWAFGGGTKVEIK
In the case of B1, in data set [1], the “effect or benefit” value was “no effect”.

B2: ABBV-8E12: humanized anti-tau monoclonal antibody (antibody, chains of the INN, looked up, V domains shown)
VH: EVKVVESGGGLVQPGGSMKLSCVVSGFTFSNYWVNWVRQAPGKGLEWVAQIRLKSDNYATHYEESVKGRFTISRDDSKSSVYLQMNNLRAEDSGIYYCTNWEDYWGQGTTVTVSS
VL: DIVLTQSPDSLAVSLGERATISCRASQSVSTSRYSYIHWYQQKPGQPPKLLIKYASNLESGVPSRFSGSGSGTDFTLNIHPLEPEDFATYYCHHSWEIPLTFGQGTKLEIK
In the case of B2, in data set [1], the “effect or benefit” value is given as “failed to demonstrate an effect”.
